In PMC5020642, “Structural insight into the arginine-binding specificity of CASTOR1 in amino acid-dependent mTORC1 signaling” (Cell Discovery, 2016):
Where a chain is given by its changes, count along the chain named. Values belong to the molecule of their own block, whether it stands above or below them.

Key:
[1] = target: T1, A^2A^1A^2A^1; assay: isothermal titration calorimetry; assay type: binding, Homo sapiens; conditions: 20 °C; 1 mM ligand titrated into 70 μM protein; single-site model
T1 construct: gene CASTOR2; one polypeptide: CASTOR2 with ACT2 and ACT4 replaced by those of CASTOR1 (CASTOR1 residues 1-5, 76-147, 176-179, 263-329); E. coli
Text: isothermal titration calorimetry on A^2A^1A^2A^1

[2] = target: T2, CASTOR1 (Homo sapiens, UniProt Q8WTX7); assay: isothermal titration calorimetry; assay type: binding
T2 construct: full-length, residues 1-329, C-terminal His6 tag (pET-28a), E. coli BL21(DE3), homodimer in solution; Ni-NTA and gel filtration
T2 sequence (Q8WTX7 1-329): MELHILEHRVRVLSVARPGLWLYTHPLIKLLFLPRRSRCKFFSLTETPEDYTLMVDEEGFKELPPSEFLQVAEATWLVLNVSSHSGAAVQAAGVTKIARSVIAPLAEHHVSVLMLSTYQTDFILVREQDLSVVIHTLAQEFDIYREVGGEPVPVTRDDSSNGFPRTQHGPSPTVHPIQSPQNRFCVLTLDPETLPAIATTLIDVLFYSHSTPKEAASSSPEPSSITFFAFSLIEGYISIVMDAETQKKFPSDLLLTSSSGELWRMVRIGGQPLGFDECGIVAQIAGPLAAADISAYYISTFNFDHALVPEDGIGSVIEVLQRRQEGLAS

[3] = target: T3, A^2A^2A^2A^1; assay: isothermal titration calorimetry; assay type: binding, Homo sapiens; conditions: 20 °C; 1 mM ligand titrated into 70 μM protein; single-site model
T3 construct: gene CASTOR2; one polypeptide: CASTOR2 with ACT4 replaced by ACT4 of CASTOR1 (ACT4 of CASTOR1 = residues 176-179 and 263-329); E. coli
Text: isothermal titration calorimetry on A^2A^2A^2A^1

[4] = target: T4, CASTOR1 (Homo sapiens, UniProt Q8WTX7, F303A); assay: isothermal titration calorimetry; assay type: binding
T4 construct: full-length, residues 1-329, C-terminal His6 tag (pET-28a), E. coli BL21(DE3), homodimer in solution; Ni-NTA and gel filtration
T4 sequence (Q8WTX7 1-329 F303A): T2 sequence (Q8WTX7 1-329) with F303A
Text: (§1) isothermal titration calorimetry on CASTOR1

[5] = target: T5, CASTOR1 (Homo sapiens, UniProt Q8WTX7, L113A); assay: isothermal titration calorimetry; assay type: binding
T5 construct: full-length, residues 1-329, C-terminal His6 tag (pET-28a), E. coli BL21(DE3), homodimer in solution; Ni-NTA and gel filtration
T5 sequence (Q8WTX7 1-329 L113A): T2 sequence (Q8WTX7 1-329) with L113A
Text: as §1

[6] = target: T6, CASTOR1 (Homo sapiens, UniProt Q8WTX7, V281A); assay: isothermal titration calorimetry; assay type: binding
T6 construct: full-length, residues 1-329, C-terminal His6 tag (pET-28a), E. coli BL21(DE3), homodimer in solution; Ni-NTA and gel filtration
T6 sequence (Q8WTX7 1-329 V281A): T2 sequence (Q8WTX7 1-329) with V281A
Text: as §1

[7] = target: T7, A^2A^1A^2A^2; assay: isothermal titration calorimetry; assay type: binding, Homo sapiens; conditions: 20 °C; 1 mM ligand titrated into 70 μM protein; single-site model
T7 construct: gene CASTOR2; one polypeptide: CASTOR2 with ACT2 replaced by ACT2 of CASTOR1 (ACT2 of CASTOR1 = residues 1-5 and 76-147); E. coli
Text: isothermal titration calorimetry on A^2A^1A^2A^2

[8] = target: the molecule itself; assay: SEC + other: dynamic light scattering; purified recombinant proteins in solution; CASTOR1 with and without arginine (dimerization independent of arginine); the CASTOR1-CASTOR2 complex analysed after co-purification

- Kd [1]: 8.6 ± 1.9 µM
- Kd [2]: 5.5 ± 0.4 µM
- Kd [3]: 40.2 ± 8.4 µM
- Kd [4]: 17.6 ± 1.9 µM
- Kd [5]: 160 ± 23.6 µM
- Kd [6]: 25.6 ± 4.3 µM
- Kd [7]: 55 ± 11.5 µM
Molecule: N=C(N)NCCC[C@H](N)C(=O)O [arginine]

B1: CASTOR2, His6-SUMO fusion (natural protein, human, UniProt A6NHX0 1-329, looked up)
chain: MELHILEHRLQVASVAKESIPLFTYGLIKLAFLSSKTRCKFFSLTETPEDYTIIVDEEGFLELPSSEHLSVADATWLALNVVSGGGSFSSSQPIGVTKIAKSVIAPLADQNISVFMLSTYQTDFILVRERDLPFVTHTLSSEFTILRVVNGETVAAENLGITNGFVKPKLVQRPVIHPLSSPSNRFCVTSLDPDTLPAVATLLMDVMFYSNGVKDPMATGDDCGHIRFFSFSLIEGYISLVMDVQTQQRFPSNLLFTSASGELWKMVRIGGQPLGFDECGIVAQISEPLAAADIPAYYISTFKFDHALVPEENINGVISALKVSQAEKH
notes: CASTOR2, human; Homodimer on its own; in the co-expressed complex with m3 it stands once (heterodimer); Purification of the co-expressed complex is said to be the same as for CASTOR1 (Ni-NTA), so the tag would be the handle there; also called His6-SUMO fused castor2; source: E. coli BL21 (DE3), purified (Ni-NTA, gel filtration); also co-expressed with untagged CASTOR1 in E. coli BL21 (DE3)
- stoichiometry N [8]: 2

B2: full-length human CASTOR1 (residues 1-329), His6-tagged (natural protein, UniProt Q8WTX7 1-329, looked up)
chain: T2 sequence (Q8WTX7 1-329)
notes: CASTOR1, human, full length, residues 1-329; Cloned in pET-28a (NcoI/XhoI); Se-Met substituted protein was used for phasing; No removal of the His6 tag is described; also called recombinant CASTOR1; source: E. coli BL21 (DE3), purified (Ni-NTA, gel filtration on Superdex 200)
- stoichiometry N [8]: 2
